Measured values reported in PMC2193169 (The Journal of Experimental Medicine, 2000).

Columns and labels:
[1] = target: Cathepsin Z (Cat Z) (Mus musculus, UniProt Q9WUU7); assay: competition of […]-JPM565 active-site labeling in transfected […] cell lysate; type: biochemical
[2] = target: T1, Cathepsin F (Cat F) (Mus musculus, UniProt Q9R013); type: cell-based
T1 sequence (Q9R013 249-462): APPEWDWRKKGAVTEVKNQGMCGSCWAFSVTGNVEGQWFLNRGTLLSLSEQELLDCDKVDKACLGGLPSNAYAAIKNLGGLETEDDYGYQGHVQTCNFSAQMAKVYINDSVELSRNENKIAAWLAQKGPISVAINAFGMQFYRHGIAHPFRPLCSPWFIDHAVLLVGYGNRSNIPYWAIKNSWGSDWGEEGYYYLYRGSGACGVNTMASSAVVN

Sequence of Cathepsin Z (Cat Z) (Q9WUU7 64-306): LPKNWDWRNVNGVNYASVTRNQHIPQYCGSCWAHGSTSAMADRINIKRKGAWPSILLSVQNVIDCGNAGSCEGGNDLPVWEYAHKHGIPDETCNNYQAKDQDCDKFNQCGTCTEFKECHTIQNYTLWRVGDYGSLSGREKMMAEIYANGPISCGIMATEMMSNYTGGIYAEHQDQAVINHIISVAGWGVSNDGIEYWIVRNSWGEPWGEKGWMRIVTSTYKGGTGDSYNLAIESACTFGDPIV

Compound | inhibits at this concentration [1] | complete inhibition [2]
CC(C)C[C@H](NC(=O)[C@H]1O[C@@H]1C(=O)O)C(=O)NCCCCNC(=N)N [E64] | 20 (inhibits at this concentration) μM | 
CC(C)C[C@H](NC(=O)N1CCOCC1)C(=O)N[C@H](/C=C/S(=O)(=O)c1ccccc1)CCc1ccccc1 [LHVS] |  | 1 (complete inhibition) μM
